According to patent US9949479B2 (priority 2015, dated 2018):
Several values for one entry are separate records, joined by “and”; a condition that tells them apart may be missing. Identical values can stand only once. Like-named read-outs stand apart in the source and are kept apart here.

Key:
[1] = tested on: wheat scab; assay type: in vivo, Fusarium spp.
[2] = tested on: leaf blight; assay type: in vivo; conditions: Serial 5: preparation 100 g/mu; jinggangmycin 20, metconazole 0 g ai./mu
[3] = tested on: powdery mildew; assay type: in vivo; conditions: Serial 5: preparation 100; jinggangmycin 20, metconazole 0 g ai./mu
[4] = tested on: powdery mildew; assay type: in vivo
[5] = tested on: leaf blight; assay type: in vivo
[6] = parameters: species or system wheat; conditions: in vivo
[7] = tested on: leaf blight; assay type: in vivo; remark: listed apart in the source
[8] = tested on: leaf blight; assay type: in vivo; conditions: dose as in E154
[9] = parameters: species or system wheat; conditions: in vivo; remark: listed apart in the source
[10] = tested on: powdery mildew; assay type: in vivo; remark: listed apart in the source
[11] = tested on: leaf blight; assay type: in vivo; remark: listed apart in the source
[12] = parameters: species or system wheat; conditions: in vivo; remark: listed apart in the source
[13] = tested on: wheat scab; assay type: in vivo, Fusarium spp.; remark: listed apart in the source
[14] = tested on: powdery mildew; assay type: in vivo; conditions: dose as in E154
[15] = assay type: in vivo, wheat
[16] = tested on: powdery mildew; assay type: in vivo; conditions: Serial 5: preparation 100 g/mu; jinggangmycin 20, metconazole 0 g ai./mu
[17] = tested on: Fusarium graminearum; assay: microbe, parasite or virus in culture; assay type: cell-based; conditions: for inhibition at 50 µg/mL: Fusarium graminearum; for Average Fungal Colony Diameter F.g: sensitive strains
[18] = tested on: DON toxin biosynthesis of carbendazim-resistant fusarium asiaticum; assay: microbe, parasite or virus in culture; assay type: cell-based; conditions: Fusarium asiaticum, read-out: DON Biosynthesis Inhibition Rate
[19] = tested on: leaf rust fungus; assay type: in vivo; conditions: seed treatment; dose as in E133
[20] = tested on: rust; assay type: in vivo
[21] = tested on: powdery mildew; assay type: in vivo; conditions: dose as in E145
[22] = tested on: wheat scab; assay type: in vivo, Fusarium spp.; remark: listed apart in the source
[23] = tested on: rust; assay type: in vivo; conditions: dose as in E145
[24] = tested on: powdery mildew; assay type: in vivo; remark: listed apart in the source
[25] = tested on: rust; assay type: in vivo; conditions: dose as in E154
[26] = tested on: wheat scab; assay type: in vivo, Fusarium spp.; conditions: Serial 5: preparation 100; jinggangmycin 20, metconazole 0 g ai./mu
[27] = tested on: leaf blight; assay type: in vivo; conditions: Serial 5: preparation 100; jinggangmycin 20, metconazole 0 g ai./mu
[28] = tested on: rust; assay type: in vivo; remark: listed apart in the source
[29] = tested on: rust; assay type: in vivo; conditions: Serial 5: preparation 100 g/mu; jinggangmycin 20, metconazole 0 g ai./mu
[30] = tested on: Fusarium asiaticum; assay: microbe, parasite or virus in culture; assay type: cell-based
[31] = assay type: in vivo, wheat; conditions: dose as in E162
[32] = tested on: wheat scab; assay type: in vivo, Fusarium spp.; conditions: Serial 5: preparation 100 g/mu; jinggangmycin 20, metconazole 0 g ai./mu
[33] = tested on: rust; assay type: in vivo; conditions: Serial 5: preparation 100; jinggangmycin 20, metconazole 0 g ai./mu
[34] = Serial 5: preparation 50 g/mu, jinggangmycin 10 g ai./mu alone
[35] = Serial 6: preparation 37.5 g/mu, jinggangmycin 7.5 g ai./mu alone
[36] = Serial 7: preparation 15 g/mu, jinggangmycin 3 g ai./mu alone
[37] = Serial 11: jinggangmycin 36 g ai./mu alone
[38] = Serial 12: jinggangmycin 18 g ai./mu alone
[39] = Serial 13: jinggangmycin 15 g ai./mu alone
[40] = Serial 14: jinggangmycin 7.5 g ai./mu alone
[41] = Serial 15: jinggangmycin 5 g ai./mu alone
[42] = Serial 16: jinggangmycin 2.5 g ai./mu alone
[43] = Serial 17: jinggangmycin 3 g ai./mu alone
[44] = Serial 18: jinggangmycin 1.5 g ai./mu alone
[45] = Serial 19: jinggangmycin 1 g ai./mu alone
[46] = Serial 20: jinggangmycin 0.5 g ai./mu alone
[47] = Serial 5: preparation 100 g/mu, jinggangmycin 20 g ai./mu alone
[48] = Serial 6: preparation 80 g/mu, jinggangmycin 16 g ai./mu alone
[49] = Serial 7: preparation 40 g/mu, jinggangmycin 8 g ai./mu alone
[50] = Serial 8: preparation 20 g/mu, jinggangmycin 4 g ai./mu alone
[51] = Serial 5: preparation 75 g/mu, jinggangmycin 15 g ai./mu alone
[52] = Serial 6: preparation 60 g/mu, jinggangmycin 12 g ai./mu alone
[53] = Serial 7: preparation 45 g/mu, jinggangmycin 9 g ai./mu alone
[54] = Serial 8: preparation 30 g/mu, jinggangmycin 6 g ai./mu alone

OCC1=C[C@H](NC2C[C@H](CO)[C@@H](OC3O[C@H](CO)[C@@H](O)[C@H](O)[C@H]3O)[C@H](O)[C@H]2O)[C@H](O)[C@@H](O)[C@@H]1O (stereo partly shown) [Jinggangmycin A, jinggangmycin A]
Disease Index Prevention Effect % Head Blight [1, 34]: 32.4% | Disease Index Prevention Effect % Head Blight [1, 35]: 24.2% | Disease Index Prevention Effect % Head Blight [1, 36]: 0% | Disease Index Prevention Effect % Leaf Blight [2]: 7.8% | Disease Index Prevention Effect % Powdery Mildew [3]: 10.6% | Disease Index Prevention Effect % Powdery Mildew [4, 37]: 8.5% | Disease Index Prevention Effect % Powdery Mildew [4, 38]: 7.8% | Disease Index Prevention Effect % Powdery Mildew [4, 39]: 7.6% | Disease Index Prevention Effect % Powdery Mildew [4, 40]: 0% | Disease Index Prevention Effect % Powdery Mildew [4, 41]: 0% | Disease Index Prevention Effect % Powdery Mildew [4, 42]: 0% | Disease Index Prevention Effect % Powdery Mildew [4, 43]: 0% | Disease Index Prevention Effect % Powdery Mildew [4, 44]: 0% | Disease Index Prevention Effect % Powdery Mildew [4, 45]: 0% | Disease Index Prevention Effect % Powdery Mildew [4, 46]: 0% | Disease Index Prevention Effect % Leaf Blight [5, 47]: 8.6% | Disease Index Prevention Effect % Leaf Blight [5, 48]: 8.8% | Disease Index Prevention Effect % Leaf Blight [5, 49]: 5.8% | Disease Index Prevention Effect % Leaf Blight [5, 50]: 0% | Thousand Kernel Weight [6]: 39.6 g and 39.0 g and 37.9 g | Disease Index Prevention Effect % Leaf Blight [7, 34]: 8.6% | Disease Index Prevention Effect % Leaf Blight [7, 35]: 8.8% | Disease Index Prevention Effect % Leaf Blight [7, 36]: 5.8% | Disease Index Prevention Effect % Leaf Blight [8]: 0% and 6.9% | Thousand Kernel Weight [9]: 43.2 g and 42.8 g and 42.9 g and 42.6 g and 42.0 g and 39.6 g | Disease Index Prevention Effect % Powdery Mildew [10, 51]: 8.6% | Disease Index Prevention Effect % Powdery Mildew [10, 52]: 6.6% | Disease Index Prevention Effect % Powdery Mildew [10, 53]: 3.0% | Disease Index Prevention Effect % Powdery Mildew [10, 54]: 1.8% | Disease Index Prevention Effect % Leaf Blight [11, 37]: 5.8% | Disease Index Prevention Effect % Leaf Blight [11, 38]: 5.0% | Disease Index Prevention Effect % Leaf Blight [11, 39]: 4.6% | Disease Index Prevention Effect % Leaf Blight [11, 40]: 0% | Disease Index Prevention Effect % Leaf Blight [11, 41]: 0% | Disease Index Prevention Effect % Leaf Blight [11, 42]: 0% | Disease Index Prevention Effect % Leaf Blight [11, 43]: 0% | Disease Index Prevention Effect % Leaf Blight [11, 44]: 0% | Disease Index Prevention Effect % Leaf Blight [11, 45]: 0% | Disease Index Prevention Effect % Leaf Blight [11, 46]: 0% | Thousand Kernel Weight [12]: 39.2 g and 41.1 g and 39.8 g and 39.5 g | Disease Index Prevention Effect % Head Blight [13, 51]: 34.2% | Disease Index Prevention Effect % Head Blight [13, 52]: 10.2% | Disease Index Prevention Effect % Head Blight [13, 53]: 9.4% | Disease Index Prevention Effect % Head Blight [13, 54]: 7.4% | Disease Index Prevention Effect % Powdery Mildew [14]: 0% and 3.4% | Grain Toxin Content mg of DON/kg of grain [15, 51]: 2.86 mg of DON/kg of grain | Toxin Reduction Percentage % [15, 51]: 36.7% | Grain Toxin Content mg of DON/kg of grain [15, 52]: 3.82 mg of DON/kg of grain | Toxin Reduction Percentage % [15, 52]: 15.5% | Grain Toxin Content mg of DON/kg of grain [15, 53]: 4.02 mg of DON/kg of grain | Toxin Reduction Percentage % [15, 53]: 11.1% | Grain Toxin Content mg of DON/kg of grain [15, 54]: 4.14 mg of DON/kg of grain | Toxin Reduction Percentage % [15, 54]: 8.4% | Disease Index Prevention Effect % Powdery Mildew [16]: 10.6% | inhibition at 50 µg/mL ([17]; read-out: Growth Inhibition Rate F.g): 6.5% | inhibition at 50 µg/mL ([17]; read-out: inhibitory effect on the growth of the two types of fusaria): 6.5 to 7.8% | Average Fungal Colony Diameter F.g ([17]; Jinggangmycin A 0.1 μg/mL): 76.3 mm | Average Fungal Colony Diameter F.g ([17]; Jinggangmycin A 1.0 μg/mL): 76.2 mm | Average Fungal Colony Diameter F.g ([17]; Jinggangmycin A 10.0 μg/mL): 75.4 mm | Average Fungal Colony Diameter F.g ([17]; Jinggangmycin A 50.0 μg/mL): 70.3 mm | inhibition at 1 µg/mL ([18]; 168 h): 28.6% | inhibition at 10 µg/mL ([18]; 168 h): 35.5% | inhibition at 100 µg/mL ([18]; 168 h): 45.2% | inhibition at 1000 µg/mL ([18]; 168 h): 65.5% | inhibition at 10000 µg/mL ([18]; 168 h): 75.9% | inhibition at 1 µg/mL ([18]; 336 h): 1.7% | inhibition at 10 µg/mL ([18]; 336 h): 7.87% | inhibition at 100 µg/mL ([18]; 336 h): 29.9% | inhibition at 1000 µg/mL ([18]; 336 h): 57% | inhibition at 10000 µg/mL ([18]; 336 h): 75.4% | Incidence Prevention Effect % Rust [19]: 0% and 4.5% | Disease Index Prevention Effect % Rust [20, 34]: 6.8% | Disease Index Prevention Effect % Rust [20, 35]: 6.5% | Disease Index Prevention Effect % Rust [20, 36]: 0% | Disease Index Prevention Effect % Powdery Mildew [21]: 7.5% and 4.5% and 0% | Disease Index Prevention Effect % Head Blight [22, 47]: 32.0% | Disease Index Prevention Effect % Head Blight [22, 48]: 25.4% | Disease Index Prevention Effect % Head Blight [22, 49]: 14.7% | Disease Index Prevention Effect % Head Blight [22, 50]: 0% | Disease Index Prevention Effect % Rust [23]: 4.9% and 3.8% and 0% | Disease Index Prevention Effect % Powdery Mildew [24, 47]: 12.6% | Disease Index Prevention Effect % Powdery Mildew [24, 48]: 11.9% | Disease Index Prevention Effect % Powdery Mildew [24, 49]: 0% | Disease Index Prevention Effect % Powdery Mildew [24, 50]: 0% | Disease Index Prevention Effect % Rust [25]: 0% | Disease Index Prevention Effect % Head Blight [26]: 34.2% | Disease Index Prevention Effect % Leaf Blight [27]: 7.8% | Disease Index Prevention Effect % Rust [28, 47]: 6.8% | Disease Index Prevention Effect % Rust [28, 48]: 6.5% | Disease Index Prevention Effect % Rust [28, 49]: 0% | Disease Index Prevention Effect % Rust [28, 50]: 0% | Disease Index Prevention Effect % Rust [29]: 6.5% | Average Fungal Colony Diameter F.a [30]: 76.3 mm and 75.6 mm and 69.4 mm | inhibition at 50 µg/mL ([30]; Fusarium asiaticum, read-out: Growth Inhibition Rate F.a): 7.8% | Grain Toxin Content [31]: 2.89 μg/g of kernels and 3.24 μg/g of kernels and 3.86 μg/g of kernels and 4.20 μg/g of kernels and 4.77 μg/g of kernels | Disease Index Prevention Effect % Head Blight [32]: 40.2% | Disease Index Prevention Effect % Rust [33]: 6.5%
